Experiment in all cases: Antitumor activity assay in vitro (MTT)
Assay type in all cases: cell-based

The subject of experiment [1] is A549 (human non-small cell lung cancer). Particulars: A549 cells, 72 hours, Bliss method; for IC50: Homo sapiens. The procedure: (§1) (1) Five cell strains, SK-N-SH (human neuroblastoma cell), NCI-H226 (human lung cancer cell), Bel7402 (human liver cancer cell), A549 (human non-small cell lung cancer), and MCF7 (human breast cancer cell), were thawed and stably passaged for two or three times, respectively, and then digested with trypsin solution (0.25%) so as to be removed from the bottom of culture flasks. The digested cell solution was poured into a centrifuge tube, to which culture media was added to stop the digestion. The centrifuge tube was centrifuged at 1300 r/min for 3 min, the supernatant was removed gently and then 5 mL culture media was added. The cells were pipetted and mixed homogeneously. 10 μL cell suspension was taken into a cell counting plate for counting, wherein the cell concentration was adjusted to 10^4 cells/well. Each well of the 96-well plates, except for A1 well as blank control, contained 100 μL cell suspension. The 96-well plates were placed in an incubator and cultivated for 24 hours.
(§2) (2) 50 μL dimethyl sulfoxide was used to dissolve the test samples, and then a suitable amount of culture media was added so as to reach a final concentration of 2 mg/mL. Then the samples were diluted to 100, 20, 4, 0.8, 0.16 μg/mL in a 24-well plate, respectively. […] The 96-well plates were placed in an incubator and cultivated for 72 hours.
(§3) (3) The culture media containing the compounds in the 96-well plates was discarded, and the cells were washed with phosphate buffered solution (PBS) twice. Each well was added with 100 μL MTT (tetrazole) (0.5 mg/mL), and then placed in an incubator to incubate for 4 hours, after which MTT solution was discarded and 100 μL dimethyl sulfoxide was added thereto. The reaction product of survival cells with MTT, i.e. formazan, was dissolved completely by oscillation on a magnetic oscillator, then placed into a microplate reader to measure the results, and the IC50 values of compounds could be deduced by Bliss method. The control, N′-[(2-hydroxy-3-allyl)phenylmethylene]-2-(4-benzylpiperazin-1-yl)acethydrazide(PAC-1), was produced according to the method of patent WO2008/134474 A2.

Experiment [2] deals with Bel7402 (human liver cancer cell). Particulars: 72 hours, Bliss method; for IC50 Bel7402: Bel7402 cells; for IC50: Homo sapiens, Bel-7402, Bel7402 cells. How it is done: as §1, §2, §3
In experiment [3] the test system is SK-N-SH (human neuroblastoma cell). Particulars: SK-N-SH cells, 72 hours, Bliss method; for IC50: Homo sapiens. How it is done: as §1, §2, §3
Experiment [4] deals with MCF7 (human breast cancer cell). To be noted: MCF7 cells, 72 hours, Bliss method; for IC50: Homo sapiens. How it is done: as §1, §2, §3
Experiment [5] has as its system NCI-H226 (human lung cancer cell). To be noted: NCI-H226 cells, 72 hours, Bliss method; for IC50: Homo sapiens, read-out: IC50 NCI-226. How it is done: as §1, §2, §3

In brackets after ≈: the same amount, converted by molar mass. Counter-ions that a name gives are not always drawn.

For the molecule `CC(C)(C)c1cc(C=NNC(=O)c2ccc3nc[nH]c3c2)c(O)c(C(C)(C)C)c1.Cl` [Example 1, N′-[(2-hydroxy-3,5-di-tert-butyl)phenylmethylene]-1H-benzo[d]imidazole-6-formhydrazide hydrochloride], the “IC50 A549” value in experiment [1] was 0.4 µg/mL. Moreover, in experiment [2], the “IC50 Bel7402” value came out at 0.56 µg/mL. Further, in experiment [3], the “IC50 SK” value was found to be 0.08 µg/mL. For the same molecule, the “IC50 MCF7” value in experiment [4] was 0.8 µg/mL. In addition, the “IC50 NCI-226” value in experiment [5] was 0.07 µg/mL.
As for `Cc1ccc(C=NNC(=O)c2ccc3nc[nH]c3c2)c(O)c1.Cl` [Example 2, N′-[(2-hydroxy-4-methyl)phenylmethylene]-1H-benzo[d]imidazole-6-formhydrazide hydrochloride], the “IC50 A549” value in experiment [1] amounted to 1.9 µg/mL. In addition, in experiment [2], the “IC50 Bel7402” value worked out at 2.4 µg/mL. Moreover, the “IC50 SK” value in experiment [3] was found to be 2.1 µg/mL. Besides, the “IC50 MCF7” value in experiment [4] worked out at 1.8 µg/mL. In addition, the “IC50 NCI-226” value in experiment [5] is 1.0 µg/mL.
On to `O=C(NN=Cc1c(O)ccc2ccccc12)c1ccc2nc[nH]c2c1` [Example 3, N′-[(2-hydroxy-1-naphthyl)methylene]-1H-benzo[d]imidazole-6-formhydrazide hydrochloride], for which the half-inhibitory concentration (IC50) is 0.7 µg/mL in experiment [1]; 2.5 µg/mL in experiment [2]; 3 µg/mL in experiment [3]; 1.2 µg/mL in experiment [4]; 1.1 µg/mL in experiment [5].
Consider `C=CCc1cccc(C=NNC(=O)c2ccc3nc[nH]c3c2)c1O.Cl` [Example 4, N′-[(2-hydroxy-3-allyl)phenylmethylene]-1H-benzo[d]imidazole-6-formhydrazide hydrochloride], for which the “IC50 A549” value in experiment [1] is 2 µg/mL. Also, in experiment [2], the “IC50 Bel7402” value amounted to 1.3 µg/mL. Besides, the “IC50 SK” value in experiment [3] was found to be 1.3 µg/mL. For the same molecule, the “IC50 MCF7” value in experiment [4] amounted to 3.3 µg/mL. Also, the “IC50 NCI-226” value in experiment [5] is 0.2 µg/mL.
`Cc1cc(C)c(C=NNC(=O)c2ccc3nc[nH]c3c2)c(O)c1C.Cl` [Example 6, N′-[(2-hydroxy-3,4,6-trimethyl)phenylmethylene]-1H-benzo[d]imidazole-6-formhydrazide hydrochloride]: the “IC50 A549” value in experiment [1] came to 3.1 µg/mL. The “IC50 Bel7402” value in experiment [2] was 2.6 µg/mL. Moreover, in experiment [3], the “IC50 SK” value was determined as 1.8 µg/mL. Also, the “IC50 MCF7” value in experiment [4] turned out to be 3.2 µg/mL. In addition, in experiment [5], the “IC50 NCI-226” value came out at 1.7 µg/mL.
In the same order, the values of `Cc1ccc(O)c(C=NNC(=O)c2ccc3nc[nH]c3c2)c1.Cl` [Example 7, N′-[(2-hydroxy-5-methyl)phenylmethylene]-1H-benzo[d]imidazole-6-formhydrazide hydrochloride] are 12 µg/mL, 5.4 µg/mL, 3.2 µg/mL, 1.9 µg/mL and 2.7 µg/mL.
For `Cc1ccc(C(C)C)c(C=NNC(=O)c2ccc3nc[nH]c3c2)c1O.Cl` [Example 8, N′-[(2-hydroxy-3-methyl-6-isopropyl)phenylmethylene]-1H-benzo[d]imidazole-6-formhydrazide hydrochloride] the same measures were 1.5 µg/mL, 2.4 µg/mL, 3.0 µg/mL, 1.7 µg/mL and 1.0 µg/mL.
Turning to `Cl.O=C(NN=Cc1ccc(OCc2ccc(Cl)cc2)cc1O)c1ccc2nc[nH]c2c1` [Example 9, N′-{[2-hydroxy-4-(4-chlorobenzyloxy)]phenylmethylene}-1H-benzo[d]imidazole-6-formhydrazide hydrochloride], in experiment [1], the “IC50 A549” value is 0.9 µg/mL. In addition, in experiment [2], the “IC50 Bel7402” value came out at 1.5 µg/mL. Also, the “IC50 SK” value in experiment [3] was 0.2 µg/mL. Besides, the “IC50 MCF7” value in experiment [4] was determined as 0.6 µg/mL. Moreover, the “IC50 NCI-226” value in experiment [5] is 0.5 µg/mL.
Take `O=C(NN=Cc1ccccc1O)c1ccc2nc[nH]c2c1` [Example 11, N′-[(2-hydroxy)phenylmethylene]-1H-benzo[d]imidazole-6-formhydrazide hydrochloride]: the 50% inhibitory concentration (IC50) in experiment [1] worked out at 10 µg/mL; in experiment [2], 3.2 µg/mL; in experiment [3], 2.7 µg/mL; in experiment [4], 2.3 µg/mL; in experiment [5], 2.3 µg/mL.
For the molecule `Cl.O=C(NN=Cc1cc(OCc2ccc(Cl)cc2)ccc1O)c1ccc2nc[nH]c2c1` [Example 12, N′-{[2-hydroxy-5-(4-chlorobenzyloxy)]phenylmethylene}-1H-benzo[d]imidazole-6-formhydrazide hydrochloride], the “IC50 A549” value in experiment [1] is 5.8 µg/mL. Also, in experiment [2], the “IC50 Bel7402” value is 3.3 µg/mL. The “IC50 SK” value in experiment [3] was 3.0 µg/mL. For the same molecule, the “IC50 MCF7” value in experiment [4] was found to be 2.1 µg/mL. In addition, in experiment [5], the “IC50 NCI-226” value was 1.7 µg/mL.
For `Cl.O=C(NN=Cc1ccc(OCc2ccccc2)cc1O)c1ccc2nc[nH]c2c1` [Example 13, N′-[(2-hydroxy-4-benzyloxy)phenylmethylene]-1H-benzo[d]imidazole-6-formhydrazide hydrochloride] the same measures were 2.6 µg/mL, 3.7 µg/mL, 1.1 µg/mL, 1.8 µg/mL and 2.4 µg/mL.
Consider `C=CCN1C(=O)NC(=O)C(C=NNC(=O)c2ccc3nc[nH]c3c2)C1=O` (stereo not shown) [Example 14, N′-[(1-allyl-2,4,6-pyrimidinetrione-5-yl)methylene]-1H-benzo[d]imidazole-6-formhydrazide], for which the IC50 is 10 µg/mL (≈ 28.2 µM) in experiment [1]; 2.2 µg/mL (≈ 6.21 µM) in experiment [2]; 0.9 µg/mL (≈ 2.54 µM) in experiment [3]; 1.7 µg/mL (≈ 4.8 µM) in experiment [4]; 2.5 µg/mL (≈ 7.06 µM) in experiment [5].
With `Cl.O=C(NN=Cc1cc(OCc2cccc(Cl)c2)ccc1O)c1ccc2nc[nH]c2c1` [Example 18, N′-{[2-hydroxy-5-(3-chlorobenzyloxy)]phenylmethylene}-1H-benzo[d]imidazole-6-formhydrazide hydrochloride], the “IC50 A549” value in experiment [1] was found to be 1.5 µg/mL. In addition, the “IC50 Bel7402” value in experiment [2] stood at 3.1 µg/mL. Besides, the “IC50 SK” value in experiment [3] was determined as 1.7 µg/mL. The “IC50 MCF7” value in experiment [4] stood at 2.7 µg/mL. In addition, in experiment [5], the “IC50 NCI-226” value is 2.3 µg/mL.
Take `Cl.O=C(Cc1nc2ccccc2[nH]1)NN=Cc1cc(C(=O)CCl)ccc1O` [Example 22, N′-[(2-hydroxy-5-chloroacetyl)phenylmethylene]-1H-benzo[d]imidazole-2-acethydrazide hydrochloride]: the “IC50 A549” value in experiment [1] was found to be 1.7 µg/mL. Moreover, in experiment [2], the “IC50 Bel7402” value is 0.5 µg/mL. For the same molecule, in experiment [3], the “IC50 SK” value is 1.0 µg/mL. Moreover, in experiment [4], the “IC50 MCF7” value worked out at 3.4 µg/mL. In addition, the “IC50 NCI-226” value in experiment [5] worked out at 0.8 µg/mL.
In the same order, the values of `Cc1cc(C)c(C=NNC(=O)Cc2nc3ccccc3[nH]2)c(O)c1C.Cl` [Example 23, N′-[(2-hydroxy-3,4,6-trimethyl)phenylmethylene]-1H-benzo[d]imidazole-2-acethydrazide hydrochloride] are 2.4 µg/mL, 3.1 µg/mL, 0.3 µg/mL, 2.6 µg/mL and 0.3 µg/mL.
As to `Cl.O=C(Cc1nc2ccccc2[nH]1)NN=Cc1cc(OCc2ccccc2)ccc1O` [Example 25, N′-[(2-hydroxy-5-benzyloxy)phenylmethylene]-1H-benzo[d]imidazole-2-acethydrazide hydrochloride], the “IC50 A549” value in experiment [1] was 4.1 µg/mL. The “IC50 Bel7402” value in experiment [2] is 3.7 µg/mL. Further, in experiment [3], the “IC50 SK” value was found to be 0.4 µg/mL. Moreover, the “IC50 MCF7” value in experiment [4] was found to be 1.0 µg/mL. Further, the “IC50 NCI-226” value in experiment [5] was found to be 1.6 µg/mL.
On to “N′-{[2-hydroxy-3-(1-methyl-2-allyl)]phenylmethylene}-1H-benzo[d]imidazole-6-formhydrazide hydrochloride [Example 10]”, for which the “IC50 A549” value in experiment [1] turned out to be 1.2 µg/mL. Moreover, in experiment [2], the “IC50 Bel7402” value is 3.3 µg/mL. Also, in experiment [3], the “IC50 SK” value came to 1.1 µg/mL. Also, the “IC50 MCF7” value in experiment [4] turned out to be 3.8 µg/mL. In addition, the “IC50 NCI-226” value in experiment [5] amounted to 1.0 µg/mL.

The values are drawn from US9249106B2, “Substituted hydrazide compounds and use thereof” (Shenyang J & Health Pharmaceutical Co., Ltd., priority 2009, dated 2016).
